{"source": "patent US20220227760A1", "about": "“COMPOUNDS AND COMPOSITIONS FOR TREATING CONDITIONS ASSOCIATED WITH STING ACTIVITY” (IFM Due, Inc., priority 2019, published 2022)", "note": "pEC50: −log10 of the molar value."}
{"biological_target": "T1, Human STING (Homo sapiens, UniProt Q86WV6, G230A/H232R/R293Q/R71H)", "T1 construct": "host or cells: THP1-Dual KO-IFNAR2 cells", "T1 sequence (Q86WV6 whole entry R71H/G230A/H232R/R293Q)": "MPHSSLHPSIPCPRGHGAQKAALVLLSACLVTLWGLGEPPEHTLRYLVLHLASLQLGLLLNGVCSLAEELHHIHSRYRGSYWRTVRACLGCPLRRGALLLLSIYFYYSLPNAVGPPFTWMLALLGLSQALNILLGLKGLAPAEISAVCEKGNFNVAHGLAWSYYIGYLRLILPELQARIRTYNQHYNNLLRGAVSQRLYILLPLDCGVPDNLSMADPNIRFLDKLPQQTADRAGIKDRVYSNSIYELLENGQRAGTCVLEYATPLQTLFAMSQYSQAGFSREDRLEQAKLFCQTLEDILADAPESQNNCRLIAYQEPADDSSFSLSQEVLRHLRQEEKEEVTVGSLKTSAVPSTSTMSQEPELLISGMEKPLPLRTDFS", "experiment": "STING reporter assay (luciferase) in THP1-Dual KO-IFNAR2 cells stimulated with 2′3′cGAMP", "format": "cell-based", "details": "15 μM 2′3′cGAMP, 24 h, class symbols", "description": "(§1) STING pathway activation by the compounds described herein is measured using THP1 Dual™ cells (KO-IFNAR2).\n(§2) THP1-Dual™ KO-IFNAR2 Cells (obtained from invivogen) are maintained in RPMI, 10% FCS, 5 ml P/S, 2 mM L-glut, 10 mM Hepes, and 1 mM sodium pyruvate. Compounds are spotted in empty 384 well tissue culture plates (Greiner 781182) by Echo for a final concentration of 0.0017-100 μM. Cells are plated into the TC plates at 40 μL per well, 2×10E6 cells/mL. For activation with STING ligand, 2′3′cGAMP (MW 718.38, obtained from Invivogen), is prepared in Optimem media.\n(§3) The following solutions are prepared for each 1×384 plate: • Solution A: 2 mL Optimem with one of the following stimuli: • 60 uL of 10 mM 2′3′cGAMP ->150 μM stock • Solution B: 2 mL Optimem with 60 μL Lipofectamine 2000->Incubate 5 min at RT\n(§4) 2 mL of solution A and 2 ml Solution B is mixed and incubated for 20 min at room temperature (RT). 20 uL of transfection solution (A+B) is added on top of the plated cells, with a final 2′3′cGAMP concentration of 15 μM. The plates are then centrifuged immediately at 340 g for 1 minute, after which they are incubated at 37° C., 5% CO2, >98% humidity for 24 h. Luciferase reporter activity is then measured. EC50 values were calculated by using standard methods known in the art.\n(§5) Luciferase reporter assay: 10 μL of supernatant from the assay is transferred to white 384-plate with flat bottom and squared wells. one pouch of QUANTI-Luc™ Plus is dissolved in 25 mL of water. 100 μL of QLC Stabilizer per 25 mL of QUANTI-Luc™ Plus solution was added. 50 μL of QUANTI-Luc™ Plus/QLC solution per well is then added. Luminescence is measured on a Platereader (e.g., Spectramax I3X (Molecular Devices GF3637001)).\n(§6) Luciferase reporter activity is then measured. EC50 values are calculated by using standard methods known in the art."}
{"smiles": "Fc1cnc2[nH]cc(Nc3ncc(-c4ccccc4)o3)c2c1", "note": "[Compound 101, N-[5-fluoro-1H-pyrrolo[2,3-b]pyridin-3-yl]-5-phenyl-1,3-oxazol-2-amine]", "pEC50": "6.00 to 6.70"}
{"smiles": "c1ccc(-c2ccnc(Nc3c[nH]c4cccnc34)c2)cc1", "note": "[Compound 102, N-(4-phenylpyridin-2-yl)-1H-pyrrolo[3,2-b]pyridin-3-amine]", "pEC50": "4.52 to 5.30"}
{"smiles": "c1ccc2sc(Nc3c[nH]c4ccccc34)nc2c1", "note": "[Compound 103]", "pEC50": "5.30 to 6.00"}
{"smiles": "c1ccc(-c2ccnc(Nc3c[nH]c4ccccc34)n2)cc1", "note": "[Compound 158]", "pEC50": "5.30 to 6.00"}
{"smiles": "c1ccc2nc(Nc3c[nH]c4ccccc34)ncc2c1", "note": "[Compound 159]", "pEC50": "4.52 to 5.30"}
{"smiles": "O=c1cc(-c2ccccc2)[nH]c(Nc2c[nH]c3cccnc23)n1", "note": "[Compound 160]", "pEC50": "5.30 to 6.00"}
{"smiles": "Fc1cc2[nH]cc(Nc3ccc4cc(C(F)(F)F)ccc4n3)c2cc1F", "note": "[Compound 161, N-(5,6-difluoro-1H-indol-3-yl)-6-(trifluoromethyl)quinolin-2-amine]", "pEC50": "5.30 to 6.00"}
{"smiles": "Fc1cc2[nH]cc(Nc3ccc4ccc(C(F)(F)F)cc4n3)c2cc1F", "note": "[Compound 162]", "pEC50": "6.00 to 6.70"}
{"smiles": "O=c1cc(-c2ccccc2)[nH]c(Nc2c[nH]c3cc(F)c(F)cc23)n1", "note": "[Compound 163, 2-[(5,6-difluoro-1H-indol-3-yl)amino]-6-phenyl-1H-pyrimidin-4-one]", "pEC50": "4.52 to 5.30"}
{"smiles": "c1ccc(-c2cnc(Nc3c[nH]c4ccccc34)s2)cc1", "note": "[Compound 165]", "pEC50": "6.00 to 6.70"}
{"smiles": "c1ccc2cc(Nc3c[nH]c4ccccc34)ncc2c1", "note": "[Compound 166]", "pEC50": "5.30 to 6.00"}
{"smiles": "c1ccc2nc(Nc3c[nH]c4ccccc34)ccc2c1", "note": "[Compound 167]", "pEC50": "5.30 to 6.00"}
{"smiles": "c1ccc(-c2ccc(Nc3c[nH]c4cccnc34)nc2)cc1", "note": "[Compound 169]", "pEC50": "4.52 to 5.30"}
{"biological_target": "T1, Human STING", "experiment": "STING reporter assay (luciferase) in THP1-Dual KO-IFNAR2 cells stimulated with 2′3′cGAMP", "format": "cell-based", "details": "15 μM 2′3′cGAMP, 24 h, numeric bounds", "description": "as §1, §2, §3, §4, §5, §6"}
{"smiles": "O=c1cc[nH]c(Nc2c[nH]c3cc(F)c(F)cc23)n1", "note": "[Compound 164]", "pEC50": "< 4.52"}
{"smiles": "O=c1nc(Nc2c[nH]c3cccnc23)ccn1-c1ccccc1", "note": "[Compound 168]", "pEC50": "< 4.00"}
